The text below walks through data of ChEMBL document CHEMBL1129670, “Synthesis and structure-activity relationships of N-propyl-N-(4-pyridinyl)-1H-indol-1-amine (besipirdine) and related analogs as potential therapeutic agents for Alzheimer's disease” (J Med Chem, 1996).

Each structure is given as a SMILES string.

As usually defined, the ED50 is the midpoint of the dose-response relation. Low values mean greater potency, high ones weaker potency. What is called IC50 is the midpoint of a concentration-inhibition curve. Low readings indicate inhibition by little substance, high ones a need for much substance.

The species named for test [1] is Mus musculus. Briefly: animal or person.
Description: Effective dose against administration in mice
Test [2] concerns the target Muscarinic acetylcholine receptor. The class given is cell membranes, Membrane.
Description: Inhibition of [3H]quinuclidinyl benzilate (QNB) binding from rat forebrain membranes in the absence of Zn
Test [3] concerns Mus musculus. Briefly: Antagonistic activity against Scopolamine induced behavioral deficits in mice at dose 1.25 mg/kg sc; 1/6. Format: functional.
The target of test [4] is Sodium-dependent noradrenaline transporter (Homo sapiens, UniProt P23975).
Sequence of Sodium-dependent noradrenaline transporter (P23975 whole entry): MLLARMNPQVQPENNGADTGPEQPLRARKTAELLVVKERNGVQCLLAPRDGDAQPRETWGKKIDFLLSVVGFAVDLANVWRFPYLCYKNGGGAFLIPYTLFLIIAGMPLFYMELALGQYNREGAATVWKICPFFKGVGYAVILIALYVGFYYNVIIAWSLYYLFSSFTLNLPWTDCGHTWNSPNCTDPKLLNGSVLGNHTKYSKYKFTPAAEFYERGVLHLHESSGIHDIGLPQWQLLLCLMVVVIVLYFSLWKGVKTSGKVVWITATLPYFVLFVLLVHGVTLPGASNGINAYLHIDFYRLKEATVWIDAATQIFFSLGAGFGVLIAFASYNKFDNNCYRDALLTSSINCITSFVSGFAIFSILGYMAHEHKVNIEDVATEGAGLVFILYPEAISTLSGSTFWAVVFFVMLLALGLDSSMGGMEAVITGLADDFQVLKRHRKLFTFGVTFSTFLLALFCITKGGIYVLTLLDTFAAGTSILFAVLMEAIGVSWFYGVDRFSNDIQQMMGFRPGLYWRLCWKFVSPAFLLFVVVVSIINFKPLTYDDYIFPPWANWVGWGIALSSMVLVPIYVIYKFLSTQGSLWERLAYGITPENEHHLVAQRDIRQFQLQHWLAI
Description: Inhibitory activity against norepinephrine (NE) uptake in rat whole brain synaptosome preparation
For test [5], the target named is Muscarinic acetylcholine receptor. Format: cell membranes, Membrane. The source holds these as a separate data set.
Description: Inhibition of [3H]quinuclidinyl benzilate (QNB) binding from rat forebrain membranes in the presence of Zn
Test [6] concerns Mus musculus. Briefly: Antagonistic activity against Scopolamine induced behavioral deficits in mice at dose 2.5 mg/kg sc. The class given is functional. Conditions: route subcutaneous.
Test [7] deals with T1, Adrenergic receptor alpha-2 (Rattus norvegicus, UniProt P22086+P19328+P22909).
T1 sequence (P22086 whole entry): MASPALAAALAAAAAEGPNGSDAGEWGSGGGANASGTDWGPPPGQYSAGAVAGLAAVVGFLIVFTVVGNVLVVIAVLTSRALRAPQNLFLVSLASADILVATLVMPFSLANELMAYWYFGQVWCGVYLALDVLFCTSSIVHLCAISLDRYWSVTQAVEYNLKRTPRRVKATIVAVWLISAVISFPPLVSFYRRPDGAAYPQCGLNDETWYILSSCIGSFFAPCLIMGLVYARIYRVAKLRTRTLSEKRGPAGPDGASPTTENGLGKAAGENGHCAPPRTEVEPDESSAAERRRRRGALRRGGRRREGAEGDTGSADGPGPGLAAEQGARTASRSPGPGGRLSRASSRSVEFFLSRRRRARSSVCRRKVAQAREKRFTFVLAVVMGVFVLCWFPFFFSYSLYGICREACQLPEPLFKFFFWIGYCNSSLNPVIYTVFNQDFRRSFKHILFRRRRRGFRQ
T1 sequence (P19328 whole entry): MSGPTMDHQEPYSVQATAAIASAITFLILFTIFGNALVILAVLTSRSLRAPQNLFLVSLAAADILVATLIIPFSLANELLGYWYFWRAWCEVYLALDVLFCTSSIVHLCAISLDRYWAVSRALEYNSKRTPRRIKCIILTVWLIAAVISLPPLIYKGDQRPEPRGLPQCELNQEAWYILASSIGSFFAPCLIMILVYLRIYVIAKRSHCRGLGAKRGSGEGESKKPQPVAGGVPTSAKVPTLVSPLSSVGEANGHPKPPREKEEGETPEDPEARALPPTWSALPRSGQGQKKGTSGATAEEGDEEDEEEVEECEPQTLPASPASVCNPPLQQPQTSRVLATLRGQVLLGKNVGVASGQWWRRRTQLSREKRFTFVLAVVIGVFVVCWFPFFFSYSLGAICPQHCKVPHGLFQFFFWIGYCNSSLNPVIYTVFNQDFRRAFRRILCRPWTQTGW
T1 sequence (P22909 whole entry): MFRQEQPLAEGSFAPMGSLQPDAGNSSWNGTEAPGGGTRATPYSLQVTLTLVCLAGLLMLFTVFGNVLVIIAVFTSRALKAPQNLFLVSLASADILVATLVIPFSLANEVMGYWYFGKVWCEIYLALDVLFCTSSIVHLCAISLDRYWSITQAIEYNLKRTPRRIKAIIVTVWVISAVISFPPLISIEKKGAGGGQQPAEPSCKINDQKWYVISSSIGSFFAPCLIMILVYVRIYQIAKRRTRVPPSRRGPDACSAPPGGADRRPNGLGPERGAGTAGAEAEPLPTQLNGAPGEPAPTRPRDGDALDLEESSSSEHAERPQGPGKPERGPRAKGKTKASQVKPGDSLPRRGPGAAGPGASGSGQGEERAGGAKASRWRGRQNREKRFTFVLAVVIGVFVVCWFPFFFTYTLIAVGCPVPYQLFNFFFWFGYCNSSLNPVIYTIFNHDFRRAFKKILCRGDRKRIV
The test can be described thus: Inhibitory activity against [3H]clonidine binding to Alpha-2 adrenergic receptor in rat cortex.

In another test the target is T2, Acetylcholinesterase (Rattus norvegicus, UniProt P37136).
T2 sequence (P37136 whole entry): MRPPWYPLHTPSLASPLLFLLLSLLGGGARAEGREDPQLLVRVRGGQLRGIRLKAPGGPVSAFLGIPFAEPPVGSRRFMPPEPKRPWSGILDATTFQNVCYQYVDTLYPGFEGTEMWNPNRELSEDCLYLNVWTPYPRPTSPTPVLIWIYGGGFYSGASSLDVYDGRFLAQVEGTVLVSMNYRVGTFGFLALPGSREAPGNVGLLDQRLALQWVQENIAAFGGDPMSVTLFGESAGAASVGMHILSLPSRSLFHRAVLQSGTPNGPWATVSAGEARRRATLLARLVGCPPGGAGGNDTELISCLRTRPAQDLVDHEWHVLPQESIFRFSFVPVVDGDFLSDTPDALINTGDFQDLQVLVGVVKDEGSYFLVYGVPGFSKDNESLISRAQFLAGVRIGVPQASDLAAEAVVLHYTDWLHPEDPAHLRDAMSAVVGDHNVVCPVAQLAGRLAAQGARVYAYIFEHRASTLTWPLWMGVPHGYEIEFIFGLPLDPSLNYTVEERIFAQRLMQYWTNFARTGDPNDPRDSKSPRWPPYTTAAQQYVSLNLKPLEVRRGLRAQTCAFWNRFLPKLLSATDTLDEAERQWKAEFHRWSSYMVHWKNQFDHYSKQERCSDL

The species entered for test [8] is Mus musculus. Briefly: Antagonistic activity against Scopolamine induced behavioral deficits in mice; 0/9. Format: functional.
Test [9] concerns Mus musculus. The test can be described thus: Antagonistic activity against Scopolamine induced behavioral deficits in mice at dose 0.16 mg/kg sc. Format: functional. Conditions: route subcutaneous.
For test [10], the species on record is Mus musculus. Briefly: Antagonistic activity against Scopolamine induced behavioral deficits in mice; 1/10. The class given is functional.
The species entered for test [11] is Mus musculus.
Test [12] deals with Mus musculus. The test can be described thus: Antagonistic activity against Scopolamine induced behavioral deficits in mice at dose 0.63 mg/kg sc. The class given is functional. Conditions: route subcutaneous.
The species named for test [13] is Mus musculus. The test can be described thus: Antagonistic activity against Scopolamine induced behavioral deficits in mice. The class given is functional.
Test [14] relates to Mus musculus. The test can be described thus: Antagonistic activity against Scopolamine induced behavioral deficits in mice at dose 0.04 mg/kg sc. Format: functional. To be noted: route subcutaneous.
In test [15] the test system is Mus musculus. Briefly: Antagonistic activity against Scopolamine induced behavioral deficits in mice at dose 1.0 mg/kg sc. The class given is functional. To be noted: route subcutaneous.
The test system of test [16] is Mus musculus. Briefly: Antagonistic activity against Scopolamine induced behavioral deficits in mice at dose 0.3 mg/kg sc. Format: functional. Conditions: route subcutaneous.
The species named for test [17] is Mus musculus. Briefly: Antagonistic activity against Scopolamine induced behavioral deficits in mice; 2/3. The class given is functional.
Test [18] concerns Mus musculus. The test can be described thus: Antagonistic activity against Scopolamine induced behavioral deficits in mice at dose 1.25 mg/kg sc; 0/6. Format: functional.
For test [19], the system named is Mus musculus. Briefly: Antagonistic activity against Scopolamine induced behavioral deficits in mice at dose 5.0 mg/kg sc; 1/3. The class given is functional.
The species named for test [20] is Mus musculus. Briefly: Antagonistic activity against Scopolamine induced behavioral deficits in mice; 1/3. Format: functional.
In test [21] the test system is Mus musculus. Briefly: Antagonistic activity against Scopolamine induced behavioral deficits in mice at dose 5.0 mg/kg sc; 2/6. Format: functional.
The species entered for test [22] is Mus musculus. Conditions: dose 5 mg/kg; route subcutaneous.
The species entered for test [23] is Mus musculus. To be noted: dose 0.63 mg/kg; route subcutaneous.
Test [24] concerns Mus musculus. The test can be described thus: Antagonistic activity against Scopolamine induced behavioral deficits in mice at dose 20 mg/kg sc. The class given is functional. To be noted: route subcutaneous.
Test [25] is filed under the species Mus musculus. To be noted: dose 2.5 mg/kg; route subcutaneous.
For test [26], the species on record is Mus musculus. The test can be described thus: Antagonistic activity against Scopolamine induced behavioral deficits in mice; 3/9. Format: functional.
In test [27] the test system is Mus musculus. Briefly: Antagonistic activity against Scopolamine induced behavioral deficits in mice at dose 10 mg/kg sc. Format: functional. To be noted: route subcutaneous.

Description for Acetylcholinesterase: Inhibitory activity against acetylcholinesterase in rat striatal preparation

As to `CCCN(c1ccnc2cc(Cl)ccc12)n1ccc2ccccc21.O=C(O)/C=C/C(=O)O`, the ED50 in the test filed under Mus musculus [1] is above 20 mg/kg. Further, the values for the IC50 in test [2], in test [4] and in [5] were above 300 µM, 6900 nM and 180 µM, respectively. The compound also displayed an Antagonism in the test on Mus musculus [3] of 1. The Response with Mus musculus [6] worked out at 29%.

In the case of `CCCN(c1ccncc1)n1cc(CC)c2ccccc21`, in the test listed under Mus musculus [1], the ED50 amounted to 0.44 mg/kg. Besides, the IC50 in test [2] came to 2.7 µM; in test [7] it was 3.6 µM; against Acetylcholinesterase it was 20 µM; in test [4] it was 2100 nM; in [5], 0.71 µM. This compound also had an Antagonism in the test listed under Mus musculus [8] of 0.

In turn, `CCCN(c1ccncc1)n1cc(C(C)=O)c2ccccc21` gave a median effective dose (ED50) in the test listed under Mus musculus [1] of 5 mg/kg. This compound also had a Response in the test on Mus musculus [9] of 20%. Moreover, the half-inhibitory concentration (IC50) amounted to 29 µM in test [2], 58 µM at Acetylcholinesterase, 3300 nM in test [4] and 2.7 µM in [5]. This compound came in with an Antagonism in the test filed under Mus musculus [10] of 1.

The compound `CCCN(c1cc(Cl)ncn1)n1ccc2ccccc21` displayed an ED50 in the test filed under Mus musculus [1] above 20 mg/kg. Also, the IC50 in test [2] is above 1000 µM; against Acetylcholinesterase, above 100 µM; in test [4], 2600 nM; in test [5] it was above 1000 µM. Moreover, the Antagonism in the test filed under Mus musculus [11] amounted to 3. The Response in the test on Mus musculus [12] and in the test on Mus musculus [6] was 33% each time.

On to `CCCCN(c1ccncc1)n1ccc2ccccc21`, for which the ED50 in the test listed under Mus musculus [1] was determined as 5.4 mg/kg. In addition, the concentration for half-maximal inhibition (IC50) in test [2] was found to be 4 µM; in [7] it was 0.63 µM; against Acetylcholinesterase, 62 µM; in test [4], 430 nM; in test [5], 1.5 µM. For the same compound, the Agonism in the test filed under Mus musculus [13] came to 1. The same compound returned a Response in the test with Mus musculus [14] of 23%.

In the case of `c1ccc2c(c1)ccn2Cc1ccncc1`, the figures for the Response in the test with Mus musculus [15] and in the test on Mus musculus [16] were 20% and 33%, respectively. The figures for the IC50 in test [2], in test [4] and in test [5] were 223 µM, above 20000 nM and 84 µM, respectively. For the same compound, in the test filed under Mus musculus [17], the Antagonism was 2.

`CCCN(c1ccncc1)n1ncc2ccccc21.O=C(O)/C=C/C(=O)O` displayed an ED50 in the test listed under Mus musculus [1] of 11 mg/kg. The IC50 in test [2] was 13 µM; against Acetylcholinesterase, above 100 µM; in test [4], 1400 nM; in [5] it was 4 µM. The same compound yielded an Antagonism in the test on Mus musculus [18] of 0.

Take `CCCC(c1ccncc1)n1ccc2ccccc21` (stereo not drawn): the figures for the IC50 in test [2], in test [4] and in [5] were 142 µM, 670 nM and 29 µM, respectively. In addition, in the test with Mus musculus [16], the Response was determined as 20%. The Antagonism in the test on Mus musculus [19] is 1.

For `CN(c1ccncc1)n1ccc2cc(Br)ccc21`, the Response in the test on Mus musculus [15] is reported as 44%. Also, the ED50 in the test filed under Mus musculus [1] was above 20 mg/kg. Further, the half-inhibitory concentration (IC50) was 4.6 µM in test [2], above 100 µM on Acetylcholinesterase, 13000 nM in test [4] and 2.5 µM in test [5]. Besides, the Antagonism in the test listed under Mus musculus [20] is 1.

As to `CCCN(c1ccncc1)n1ccc2cc(Br)ccc21`, the 50% effective dose (ED50) in the test filed under Mus musculus [1] is above 20 mg/kg. The IC50 in test [2] was 4.4 µM; at Acetylcholinesterase it was above 100 µM; in [4] it was 2600 nM; in test [5], 1.6 µM. The Antagonism in the test with Mus musculus [21] is 2. Further, the Response in the test listed under Mus musculus [22] and in the test listed under Mus musculus [23] was 33% in each case.

In turn, `C#CCN(c1ccncc1)n1ccc2ccccc21` yielded an ED50 in the test filed under Mus musculus [1] of 3.9 mg/kg. For the same compound, the IC50 in test [2] is 11 µM; in [7], 0.5 µM; on Acetylcholinesterase, above 100 µM; in test [4] it was 680 nM; in test [5], 2.5 µM. For the same compound, the figures for the Response with Mus musculus [24], in the test filed under Mus musculus [25] and in the test with Mus musculus [27] were 27%, 21% and 21%, respectively. This compound displayed an Antagonism in the test listed under Mus musculus [26] of 3.
